ChEMBL document CHEMBL4385620, “Inhibition of polypeptide N-acetyl-α-galactosaminyltransferases is an underlying mechanism of dietary polyphenols preventing colorectal tumorigenesis” (Bioorg Med Chem, 2019)
pIC50, pKd: −log10 of the molar value. Activity calls are given as the source filed them. No cut-off for these calls is given here.

Columns and labels:
[1] = molecular target: T1, Polypeptide N-acetylgalactosaminyltransferase 2 (Homo sapiens, UniProt Q10471); assay: Inhibition of catalytic activity of human recombinant FLAG-tagged ppGalNAcT2 expressed in HEK293T cells and using 5-FAM labelled-EA2 peptide as substrate incubated for 30 mins by HPLC-based enzyme assay
T1 sequence (Q10471 whole entry): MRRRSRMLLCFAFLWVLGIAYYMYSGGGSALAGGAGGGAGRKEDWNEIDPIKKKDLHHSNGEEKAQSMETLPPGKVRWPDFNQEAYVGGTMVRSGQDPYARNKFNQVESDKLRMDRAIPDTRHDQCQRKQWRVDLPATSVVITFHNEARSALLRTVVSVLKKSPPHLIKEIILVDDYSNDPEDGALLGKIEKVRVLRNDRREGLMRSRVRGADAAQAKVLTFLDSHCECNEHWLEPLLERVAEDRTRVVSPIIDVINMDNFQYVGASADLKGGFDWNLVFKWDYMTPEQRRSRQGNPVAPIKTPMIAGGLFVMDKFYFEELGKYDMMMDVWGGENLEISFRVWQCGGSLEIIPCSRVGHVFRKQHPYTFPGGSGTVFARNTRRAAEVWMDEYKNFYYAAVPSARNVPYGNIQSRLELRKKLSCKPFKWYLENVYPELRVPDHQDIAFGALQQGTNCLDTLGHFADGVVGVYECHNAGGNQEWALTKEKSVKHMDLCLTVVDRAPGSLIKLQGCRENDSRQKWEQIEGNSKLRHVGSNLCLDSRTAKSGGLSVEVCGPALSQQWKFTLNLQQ

[2] = molecular target: T1, Polypeptide N-acetylgalactosaminyltransferase 2; assay: Inhibition of ppGalNAcT2 in human HT-29 cells assessed as reduction in O-GalNAc glycans by measuring PNA lectin signal on cell surface at 40 uM incubated for 48 hrs by DAPI staining based immunofluorescence method
[3] = molecular target: T1, Polypeptide N-acetylgalactosaminyltransferase 2; assay: Binding affinity of human recombinant FLAG-tagged ppGalNAcT2 expressed in HEK293 cells assessed as dissociation rate by SPR analysis
[4] = molecular target: T1, Polypeptide N-acetylgalactosaminyltransferase 2; assay: Binding affinity of human recombinant FLAG-tagged ppGalNAcT2 expressed in HEK293 cells assessed as dissociation constant by SPR analysis
[5] = molecular target: T1, Polypeptide N-acetylgalactosaminyltransferase 2; assay: Binding affinity of human recombinant FLAG-tagged ppGalNAcT2 expressed in HEK293 cells assessed as association rate by SPR analysis
[6] = organism: Homo sapiens; assay: Ratio of IC50 for IC50 for human recombinant FLAG-tagged ppGalNAcT2 W282A mutant to IC50 for human recombinant FLAG-tagged ppGalNAcT2
[7] = molecular target: Polypeptide N-acetylgalactosaminyltransferase 2 (Homo sapiens, UniProt Q10471, W282A); assay: Inhibition of catalytic activity of human recombinant FLAG-tagged ppGalNAcT2 W282A mutant expressed in HEK293 cells using EA2 peptide as substrate by HPLC-based enzyme assay
Sequence of Polypeptide N-acetylgalactosaminyltransferase 2 (Homo sapiens, UniProt Q10471, W282A) (Q10471 whole entry W282A): as the sequence (Q10471 whole entry) above, with W282A counted along it

| SMILES | pIC50 [1] | inhibition [2] | koff [3] | pKd [4] | kon [5] | Ratio IC50 [6] | pIC50 [7] |
| --- | --- | --- | --- | --- | --- | --- | --- |
| c1cc2ccc3cccc4ccc(c1)c2c34 [PYRENE] | < 4.00 | inactive | – | – | – | – | – |
| COc1c(O)cc2c(=O)oc3c(OC)c(O)cc4c(=O)oc1c2c34 | < 4.00 | – | – | – | – | – | – |
| O=C(O)c1cc(O)c(O)c(O)c1 [GALLIC ACID] | 5.86 | – | 1.34 ×10⁻³ /s | 6.03 | 1454 M⁻¹ s⁻¹ | – | – |
| O=c1oc2c(O)c(O)cc3c(=O)oc4c(O)c(O)cc1c4c23 [ELLAGIC ACID] | 6.29 | Active | 8.79 ×10⁻⁴ /s | 6.43 | 2367 M⁻¹ s⁻¹ | 6 | 5.53 |
| O=c1oc2cc(O)ccc2c2ccccc12 | < 4.00 | – | – | – | – | – | – |
